Our source for the IC50 values is ChEMBL document CHEMBL4417631, “Oral peptide inhibitors of interleukin-23 receptor and their use to treat inflammatory bowel diseases” (2017).

Where a SMILES comes first, the peptide text is derived from it. [ ]: non-standard residue; d: D form. hLeu = CC(C)CC[C@H](N)C(=O)O

One test addresses T1, Interleukin-23 receptor (Homo sapiens, UniProt Q5VWK5).
T1 sequence (Q5VWK5 whole entry): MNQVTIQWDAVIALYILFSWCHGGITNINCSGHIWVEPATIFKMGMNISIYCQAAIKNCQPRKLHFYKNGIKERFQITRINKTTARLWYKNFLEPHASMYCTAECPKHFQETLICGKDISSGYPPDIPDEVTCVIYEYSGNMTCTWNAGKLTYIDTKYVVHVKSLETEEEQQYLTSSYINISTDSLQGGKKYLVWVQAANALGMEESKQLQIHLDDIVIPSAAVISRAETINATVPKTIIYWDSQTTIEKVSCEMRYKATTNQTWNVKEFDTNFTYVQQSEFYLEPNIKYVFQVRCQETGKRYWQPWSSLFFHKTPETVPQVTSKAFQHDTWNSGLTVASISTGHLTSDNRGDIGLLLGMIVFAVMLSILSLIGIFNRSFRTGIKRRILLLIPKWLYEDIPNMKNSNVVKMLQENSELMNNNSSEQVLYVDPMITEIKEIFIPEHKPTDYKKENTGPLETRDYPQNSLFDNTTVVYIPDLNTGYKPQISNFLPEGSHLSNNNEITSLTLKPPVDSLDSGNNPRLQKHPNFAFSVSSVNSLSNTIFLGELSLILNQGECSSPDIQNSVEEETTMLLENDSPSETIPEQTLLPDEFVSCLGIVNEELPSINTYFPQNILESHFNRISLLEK
The test can be described thus: Inhibition of interleukin-23 binding to human interleukin-23 receptor incubated for 2 hrs by competitive binding ELISA. In general terms: An ELISA detects its analyte on a solid surface through an enzyme-linked reagent.
The IC50 is the midpoint of a concentration-inhibition curve. Compound `CC(=O)N[C@@H](CS)C(=O)N[C@@H](CCC(N)=O)C(=O)N1CCC[C@H]1C(=O)N[C@@H](Cc1c[nH]c2ccccc12)C(=O)N[C@@H](CCC(N)=O)C(=O)N[C@@H](CS)C(=O)N[C@@H](Cc1ccc(O)cc1)C(=O)N[C@@H](Cc1c[nH]c2ccccc12)C(=O)N[C@@H](CCC(C)C)C(=O)N[C@@H](CCC(=O)O)C(=O)N[C@@H](CC(N)=O)C(=O)NCC(N)=O` (Ac-CQPWQCYW[hLeu]ENG-NH2) had an IC50 above 10000 nM.
Still for that read-out and setting: under `CC(=O)N[C@@H](CS)C(=O)N[C@@H](C)C(=O)N[C@@H](CC(=O)O)C(=O)N[C@@H](Cc1c[nH]c2ccccc12)C(=O)N[C@H](C(=O)N[C@@H](CS)C(=O)N[C@@H](Cc1ccc(O)cc1)C(=O)N[C@@H](Cc1ccc(C(N)=O)cc1)C(=O)N[C@@H](CCCN)C(=O)N[C@@H](CN)C(=O)N[C@@H](Cc1ccccc1)C(=O)NCC(=O)NCCOCC(=O)N[C@H](CCCCN)C(N)=O)C(C)C` stands 6000 nM; under `CSCC[C@H](NC(=O)[C@H](Cc1c[nH]c2ccccc12)NC(=O)[C@H](CC(=O)O)NC(=O)[C@H](C)NC(=O)[C@@H](N)CS)C(=O)N[C@@H](CS)C(=O)N[C@@H](Cc1ccc(O)cc1)C(=O)N[C@@H](Cc1c[nH]c2ccccc12)C(=O)N[C@@H](Cc1cnc[nH]1)C(=O)N[C@@H](CCC(=O)O)C(=O)N[C@@H](Cc1ccc(O)cc1)C(=O)NCC(N)=O` (H-CADWMCYWHEYG-NH2), 500 to 1000 nM.
As to `CC(=O)N[C@@H](CS)C(=O)N[C@@H](C)C(=O)N[C@@H](CC(=O)O)C(=O)N[C@@H](Cc1c[nH]c2ccccc12)C(=O)N[C@H](C(=O)N[C@@H](CS)C(=O)N[C@@H](Cc1ccc(O)cc1)C(=O)N[C@@H](Cc1c[nH]c2ccccc12)C(=O)N[C@@H](Cc1cnc[nH]1)C(=O)N[C@H](C(=O)N[C@@H](CCCCNC(=O)COCC(=O)NCCCC[C@H](NC(=O)[C@@H](NC(=O)[C@H](Cc1cnc[nH]1)NC(=O)[C@H](Cc1c[nH]c2ccccc12)NC(=O)[C@H](Cc1ccc(O)cc1)NC(=O)[C@H](CS)NC(=O)[C@@H](NC(=O)[C@H](Cc1c[nH]c2ccccc12)NC(=O)[C@H](CC(=O)O)NC(=O)[C@H](C)NC(=O)[C@H](CS)NC(C)=O)C(C)C)[C@@H](C)O)C(=O)NCC(=O)O)C(=O)NCC(=O)O)[C@@H](C)O)C(C)C`, the IC50 lay in the range of 1000 to 10000 nM.
The same measure, in the same setting: for `CC(=O)N[C@@H](CS)C(=O)N[C@H](C(=O)N[C@H](C(=O)N[C@@H](Cc1c[nH]c2ccccc12)C(=O)N[C@@H](CCC(=O)O)C(=O)N[C@@H](CS)C(=O)N[C@@H](Cc1ccc(O)cc1)C(=O)N[C@@H](Cc1c[nH]c2ccccc12)C(=O)N[C@@H](Cc1cnc[nH]1)C(=O)N[C@@H](CCC(=O)O)C(=O)N[C@@H](Cc1ccc(O)cc1)C(=O)NCC(N)=O)[C@@H](C)O)[C@@H](C)O` (Ac-CTTWECYWHEYG-NH2) the value was below 500 nM.
Still for that read-out and setting: under `CC(=O)N[C@@H](CS)C(=O)N[C@@H](CCC(N)=O)C(=O)N[C@H](C(=O)N[C@@H](Cc1c[nH]c2ccccc12)C(=O)N[C@@H](CCC(N)=O)C(=O)N[C@@H](CS)C(=O)N[C@@H](Cc1ccc(O)cc1)C(=O)N[C@@H](Cc1c[nH]c2ccccc12)C(=O)N[C@@H](CCCNC(=N)N)C(=O)N[C@@H](CN)C(=O)N[C@@H](CC(N)=O)C(=O)NCC(=O)NCCOCC(=O)N[C@H](CCCCN)C(N)=O)[C@@H](C)O` stands below 500 nM; under `COc1ccc([C@@H]2NC(=O)[C@H]([C@@H](C)O)NC(=O)[C@H](CCC(N)=O)NC(=O)[C@@H](NC(C)=O)CCSC[C@@H](C(=O)N[C@@H](Cc3ccc(OCCN)cc3)C(=O)N[C@@H](Cc3ccc4ccccc4c3)C(=O)N[C@@](C)(CCCCN)C(=O)N[C@@H](CCC(=O)O)C(=O)N[C@@H](CC(N)=O)C(=O)NCC(N)=O)NC(=O)[C@H](CCC(N)=O)NC2=O)cc1`, above 3000 nM.
On the same count and under the same terms, for `NC(=O)CC[C@H](NC(=O)[C@@H](N)CS)C(=O)N[C@@H](CO)C(=O)N[C@@H](Cc1c[nH]c2ccccc12)C(=O)N[C@@H](CCC(=O)O)C(=O)N[C@@H](CS)C(=O)N[C@@H](Cc1ccc(O)cc1)C(=O)N[C@@H](Cc1c[nH]c2ccccc12)C(=O)N[C@@H](Cc1cnc[nH]1)C(=O)N[C@@H](Cc1ccc(O)cc1)C(=O)N[C@@H](Cc1ccc(O)cc1)C(=O)NCC(N)=O` (H-CQSWECYWHYYG-NH2) the value was above 1000 nM; for `CC(=O)N[C@H](CCCCN)C(=O)N[C@@H](CS)C(=O)N[C@@H](CCCNC(=N)N)C(=O)N[C@@H](CC(=O)O)C(=O)N[C@@H](Cc1c[nH]c2ccccc12)C(=O)N[C@@H](CCC(N)=O)C(=O)N[C@@H](CS)C(=O)N[C@@H](Cc1ccc(O)cc1)C(=O)N[C@@H](Cc1cccc2ccccc12)C(=O)N[C@@H](Cc1cnc[nH]1)C(=O)N[C@H](C(=O)N[C@@H](Cc1cnc[nH]1)C(=O)N(C)CC(=O)NCCOCCC(=O)N[C@H](CCCNC(=N)N)C(N)=O)[C@@H](C)O`, 500 to 1000 nM.

The next test deals with T1, Interleukin-23 receptor. The experiment in a line: Inhibition of interleukin-23 receptor in human DB cells assessed as reduction in IL-23-stimulated STAT3 phosphorylation incubated for 30 mins by HTRF assay. The test is classed as cell-based.
In the case of `CC(=O)N[C@H]1CCSC[C@@H](C(=O)N[C@H]2Cc3ccc(cc3)OCCNC(=O)C[C@@H](C(=O)NCC(N)=O)NC(=O)[C@H](CCC(N)=O)NC(=O)[C@](C)(CC(C)C)NC(=O)[C@H](Cc3ccc4ccccc4c3)NC2=O)NC(=O)[C@H](CCC(N)=O)NC(=O)[C@H](Cc2c[nH]c3ccccc23)NC(=O)[C@H]([C@@H](C)O)NC(=O)[C@H](CCC(N)=O)NC1=O`, the half-maximal inhibitory concentration (IC50) was 100 to 1000 nM.
Same read-out and setting: under `CC(=O)NCCCC[C@H](NC(=O)C(C)(C)NC(=O)[C@H](Cc1ccc2ccccc2c1)NC(=O)[C@H](Cc1ccc(OCCN)cc1)NC(=O)[C@@H](NC(=O)[C@H](CCC(N)=O)NC(=O)[C@H](Cc1c[nH]c2ccccc12)NC(=O)[C@@H](NC(=O)[C@H](CCC(N)=O)NC(=O)[C@@H](NC(=O)[C@H](CCCNC(=N)N)NC(C)=O)C(C)(C)S)[C@@H](C)O)C(C)(C)S)C(=O)N[C@@H](CC(N)=O)C(=O)N[C@@H](CC(N)=O)C(N)=O` stands below 10 nM; under `CC(=O)NCCCC[C@H](NC(=O)C(C)(C)NC(=O)[C@H](Cc1ccc2ccccc2c1)NC(=O)[C@H](Cc1ccc(OCCN)cc1)NC(=O)[C@@H](NC(=O)[C@H](CCC(N)=O)NC(=O)[C@H](Cc1c[nH]c2ccccc12)NC(=O)[C@@H](NC(=O)[C@H](CCC(N)=O)NC(=O)[C@@H](NC(C)=O)C(C)(C)S)[C@@H](C)O)C(C)(C)S)C(=O)N[C@@H](CC(N)=O)C(=O)N[C@@H](C)C(N)=O`, below 10 nM; under `CC(=O)NCCCC[C@H](NC(=O)C(C)(C)NC(=O)[C@H](Cc1ccc2ccccc2c1)NC(=O)[C@H](Cc1ccc(OCCN)cc1)NC(=O)[C@@H](NC(=O)[C@H](CCC(N)=O)NC(=O)[C@H](Cc1c[nH]c2ccccc12)NC(=O)[C@@H](NC(=O)[C@H](CCC(N)=O)NC(=O)[C@@H](NC(=O)[C@H](Cc1ccccc1)NC(C)=O)C(C)(C)S)[C@@H](C)O)C(C)(C)S)C(=O)N[C@@H](CC(N)=O)C(=O)N[C@@H](CC(N)=O)C(N)=O`, below 10 nM.
Same read-out and setting: for `CC(=O)NCCCC[C@H](NC(=O)[C@H](CCC(C)C)NC(=O)[C@H](Cc1ccc2ccccc2c1)NC(=O)[C@H](Cc1ccc(OCCN)cc1)NC(=O)[C@@H](NC(=O)[C@H](CCC(N)=O)NC(=O)[C@H](Cc1c[nH]c2ccccc12)NC(=O)[C@@H](NC(=O)[C@H](CCC(N)=O)NC(=O)[C@@H](NC(C)=O)C(C)(C)S)[C@@H](C)O)C(C)(C)S)C(=O)N[C@@H](CC(N)=O)C(=O)NCCC(N)=O` the value was below 10 nM; for `CC(=O)NCCCC[C@H](NC(=O)C(C)(C)NC(=O)[C@H](Cc1ccc2ccccc2c1)NC(=O)[C@H](Cc1ccc(OCCN)cc1)NC(=O)[C@@H](NC(=O)[C@H](CCC(N)=O)NC(=O)[C@H](Cc1c[nH]c2ccccc12)NC(=O)[C@@H](NC(=O)[C@H](CCC(N)=O)NC(=O)[C@@H](NC(=O)[C@H](Cc1ccc2ccccc2c1)NC(C)=O)C(C)(C)S)[C@@H](C)O)C(C)(C)S)C(=O)N[C@@H](CC(N)=O)C(=O)N[C@@H](CC(N)=O)C(N)=O`, below 10 nM; for `CC(=O)NCCCC[C@H](NC(=O)[C@H](CCCCN)NC(=O)[C@H](Cc1ccc2ccccc2c1)NC(=O)[C@H](Cc1ccc(OCCNC(C)=O)cc1)NC(=O)[C@@H](NC(=O)[C@H](CCC(N)=O)NC(=O)[C@H](Cc1c[nH]c2ccccc12)NC(=O)[C@@H](NC(=O)[C@H](CCC(N)=O)NC(=O)[C@@H](NC(C)=O)C(C)(C)S)[C@@H](C)O)C(C)(C)S)C(=O)N[C@@H](CC(N)=O)C(=O)N[C@@H](CC(N)=O)C(N)=O`, 25 to 100 nM.
Still for that read-out and setting: for `CCCCCCCC[C@H](NC(=O)[C@H](Cc1c[nH]c2ccccc12)NC(=O)[C@H](Cc1ccc(O)cc1)NC(=O)[C@H](CS)NC(=O)[C@H](CCC(N)=O)NC(=O)[C@H](Cc1c[nH]c2ccccc12)NC(=O)[C@@H](NC(=O)[C@H](CCC(N)=O)NC(=O)[C@H](CS)NC(C)=O)[C@@H](C)O)C(=O)N[C@@H](CCC(=O)O)C(=O)N[C@@H](CC(N)=O)C(=O)NCC(N)=O` the value was 76 nM.
On to `CC(=O)NCCOc1ccc(C[C@H](NC(=O)[C@@H](NC(=O)[C@H](CCC(N)=O)NC(=O)[C@H](Cc2c[nH]c3ccccc23)NC(=O)[C@@H](NC(=O)[C@H](CCC(N)=O)NC(=O)[C@@H](NC(C)=O)C(C)(C)S)[C@@H](C)O)C(C)(C)S)C(=O)N[C@@H](Cc2ccc3ccccc3c2)C(=O)N[C@](C)(C(=O)N[C@@H](CCCCN)C(=O)N[C@@H](CC(N)=O)C(=O)N[C@@H](CC(N)=O)C(N)=O)C(C)C)cc1`, for which the IC50 is below 10 nM.
For `CC(=O)NCCCC[C@H](NC(=O)[C@](C)(CCCCN)NC(=O)[C@H](Cc1ccc2ccccc2c1)NC(=O)[C@H](Cc1ccc(OCCN)cc1)NC(=O)[C@@H]1CSCC[C@H](NC(C)=O)C(=O)N[C@@H](CCC(N)=O)C(=O)N[C@@H]([C@@H](C)O)C(=O)N[C@@H](Cc2c[nH]c3ccccc23)C(=O)N[C@@H](CCC(N)=O)C(=O)N1)C(=O)N[C@@H](CC(=O)NCCCCN)C(=O)NCC(N)=O`, the IC50 is 25 to 100 nM.
